Read-outs that look alike come from different tables or passages of the source.
Key:
[1] = test system: indomethacin induced ulcer; assay: antiulcer activity: suppression of indomethacin induced ulcer in mice; type: in vivo, ddY series male mice; conditions: for inhibition in vivo at 100 mg/kg: Mus musculus, po, read-out: Suppression rate of indomethacin induced ulcer
Experimental: The antiulcer activity of the compounds of this invention was determined by the following method. Four-week-old ddY series male mice were used as the test animals after they were fasted for 24 hours. Each test compound suspended in a 1% gum arabic solution was administerd to the stomach of each mouse at a dose of 100 mg/kg, and then, after 30 minutes, 20 mg/kg of indomethacin was administered orally. Four hours after the administration of indomethacin, the stomach of mouse was extirpated and the length of ulcers was measured. Then, the ulcer index was determined by the total sum of the scores as calculated in Table 1. | TABLE 1 |Length of ulcer | 0.5 mm< 1 mm< 2 mm< 3 mm< |Score 0.5 1 2 3 The mean ulcer index of each group was calculated and the suppression rate against the control group in terms of difference in the mean ulcer index was determined.

[2] = background, cited from earlier work
reversion test = type: cell-based
[3] = acute toxicity, LD50 (P.O.); conditions: in vivo, po
[4] = 100 mg/kg, p.o., ddY male mice, indomethacin 20 mg/kg orally 30 minutes later, ulcers measured 4 hours after indomethacin

CN/C(=N/CCSCc1nc[nH]c1C)NC#N [Cimetidine]
inhibition in vivo at 100 mg/kg ([1]; 4 h): 40% | side effects ([2]; known): gynecomatism | recurrence of ulcer after suspension of administration ([2]; reported): numbers of cases are reported about recurrence of ulcer

COc1cc(CSc2nc3ccc(C)cc3c(=O)n2-c2ccccc2)ncc1C [2[(4-Methoxy-5-methylpyridin-2-yl)methylthio]-6-methyl-3-phenyl-4(3H)-quinazolinone]
inhibition in vivo at 100 mg/kg [1, 4]: 44%

O=c1c2ccccc2nc(SCc2cccnc2)n1-c1ccccc1 [3-Phenyl-2-(3-pyridylmethylthio)-4(3H)-quinazolinone]
Suppression rate of indomethacin induced ulcer [1, 4]: 63

Cc1ccc2nc(SCc3ccccn3)n(-c3ccccc3)c(=O)c2c1 [6-Methyl-3-phenyl-2-(2-pyridylmethylthio)-4(3H)-quinazolinone]
inhibition in vivo at 100 mg/kg [1, 4]: 38%

O=c1c2ccccc2nc(SCc2ccccn2)n1CCc1ccccc1 [3-Phenethyl-2-(2-pyridylmethylthio)-4(3H)-quinazolinone]
inhibition in vivo at 100 mg/kg [1, 4]: 60%

CCn1c(SCc2ccccn2)nc2ccccc2c1=O [3-Ethyl-2-(2-pyridylmethylthio)-4(3H)-quinazolinone]
reversion test (reversion test): negative | inhibition in vivo at 100 mg/kg [1, 4]: 96% | LD50 [3]: > 3000 mg/kg

O=c1c2ccccc2nc(SCc2nc3ccccc3[nH]2)n1-c1ccccc1 [2-(2-Benzimidazolylmethylthio)-3-phenyl-4(3H)-quinazolinone]
inhibition in vivo at 100 mg/kg [1, 4]: 81%

CCN(CC)CCSc1nc2ccccc2c(=O)n1-c1ccccc1 [2-(2-Diethylaminoethylthio)-3-phenyl-4(3H)-quinazolinone]
inhibition in vivo at 100 mg/kg [1, 4]: 45%

COc1ccc(-n2c(SCc3nccc(OC)c3C)nc3ccc(C)cc3c2=O)cc1 [2-[(4-Methoxy-3-methylpyridin-2-yl)methylthio]-3-(4-methoxyphenyl)-6-methyl-4(3H)-quinazolinone]
inhibition in vivo at 100 mg/kg [1, 4]: 49%
